Assay results reported in patent US20210220489A1, “AMYGDALAR NEURAL ENSEMBLE THAT ENCODES THE UNPL[…] PAIN” (The Board of Trustees of the Leland Stanford Junior …, priority 2020, published 2021).

Legend:
[1] = test system: neuropathic TRAP^hM4 mice; experiment: Neuropathic (spared nerve injury) reflexive and affective-motivational pain behaviors; format: in vivo; conditions: day 42 postinjury
Text: To induce a chronic pain state, we used a modified version of the Spared Nerve Injury (SNI) model of neuropathic pain, as previously described (70). This model entails surgical section of two of the sciatic nerve branches (common peroneal and tibial branches) while sparing the third (sural branch). […] To perform this peripheral nerve injury procedure, anesthesia was induced and maintained throughout surgery with isoflurane (4% induction, 1.5% maintenance in oxygen). The left hind leg was shaved and wiped clean with alcohol and betadine. We made a 1-cm incision in the skin of the mid-dorsal thigh, approximately where the sciatic nerve trifurcates. […] Mice were then returned to their home cage and closely monitored over the following three days for well-being.
We habituated mice inside individual red plastic cylinders (10.16-cm D) on a raised flat, perforated metal platform (60.96-cm H) for 3 days prior to the start of behavioral sensory testing. After basal thermal and mechanical thresholds were measured, mice underwent a peripheral nerve injury surgery (Spared Nerve Injury, SNI; see “Chronic neuropathic pain model” above for details of the surgical procedure). […]

noci-TRAP^hM4 mice = experiment: Reflexive and affective-motivational pain behaviors after chemogenetic inhibition of the BLA nociceptive ensemble; format: in vivo; conditions: CNO 10 mg/kg; mechanical and thermal noxious stimuli
Method: We habituated mice to a first testing room (room-A) for three consecutive days. Execution of all TRAP procedures occurred in Room-A. During these habituation days, no nociceptive stimuli were delivered, and no baseline thresholds were measured (i.e., mice were naïve to pain experience before the TRAP procedure). In room-A, we placed individual mice within red plastic cylinders (10.16-cm D), with a red lid, on a raised perforated, flat metal platform (60.96-cm H). […] This stimulus frequency was selected to closely match the protocols used in the microendoscope imaging experiments in which significant Ca^2+ transients were reliably detected in BLA Camk2a+ neurons. […]
To evaluate mechanical reflexive sensitivity, we used a logarithmically increasing set of 8 von Frey filaments (Stoelting), ranging in gram force from 0.07- to 6.0-g (93). […] Using the Up-Down statistical method, the 50% withdrawal mechanical threshold scores were calculated for each mouse and then averaged across the experimental groups. The response frequency was calculated as the number of positive responses out of 10 stimulations, delivered at 30-s intervals. […]

## C[N+]1([O-])CCN(C2=Nc3cc(Cl)ccc3Nc3ccccc32)CC1 [CNO, clozapine-N-oxide]
[1]
  reflexive hypersensitivity: did not alter
[1]; regardless of stimulus intensity or modality
  neuropathic affective-motivational behaviors: profound decrease
noci-TRAP^hM4 mice
  attending and escape behaviors: significantly reduced
